Assay results published in patent publication US10604509B2, “Nrf2 regulators” (GlaxoSmithKline Intellectual Property Development Limited, priority 2015, dated 2020).
Counter-ions that a name gives are not always drawn.

These molecules were tested on NQO1 specific enzyme activity in BEAS-2B cells (assay: BEAS-2B NQO1 MTT assay). Conditions: Homo sapiens, BEAS-2B, 48 h, BEAS-2B cells, 48 hours with compound, MTT readout; read-out: EC50 of NQO1 specific activity induction.
Format: cell-based
Summary of the method: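 BEAS-2B cells treated with compound 48 h at 37° C, 5% CO2, then lysed; NQO1 activity in lysate measured kinetically by MTT cocktail at Absorbance 570 nm over 30 min. EC50 for induction from Delta OD/min versus log concentration, 3-parameter fit; Cell Titer Glo run on lysate aliquot.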

Row | Compound | EC50
1 | Cc1ccc(C(CC(=O)O)c2ccc(F)cc2C)cc1Cn1ccnc1CC1CCCCC1 (centres unmarked) [Example 135, 3-(3-((2-(Cyclohexylmethyl)-1H-imidazol-1-yl)methyl)-4-methylphenyl)-3-(4-fluoro-2-methylphenyl)propanoic Acid] | 10 to 100 nM
2 | CC[C@@H]1CN(Cc2cc([C@H](CC(=O)O)c3ccc4c(nnn4C)c3C)ccc2F)Cc2ccncc2O1 [Example 260, (S)-3-(1,4-dimethyl-1H-benzo[d][1,2,3]triazol-5-yl)-3-(3-(((R)-2-ethyl-2,3-dihydropyrido[4,3-f][1,4]oxazepin-4(5H)-yl)methyl)-4-fluorophenyl)propanoic acid] | 100 to 1000 nM
3 | CCn1nnc2c(C)c([C@@H](c3ccc(C)c(CN4Cc5ccccc5OC(C)(C)C4)c3)C(C)(C)C(=O)O)ccc21 (single isomer, unassigned; enantiomer a) [Example 206] | 1 to 10 nM
4 | CCn1nnc2c(C)c([C@H](c3ccc(C)c(CN4Cc5cnccc5OC(C)(C)C4)c3)[C@@H](C)C(=O)O)ccc21 [Example 196, (2R,3S)-3-(3-((2,2-Dimethyl-2,3-dihydropyrido[3,4-f][1,4]oxazepin-4(5H)-yl)methyl)-4-methylphenyl)-3-(1-ethyl-4-methyl-1H-benzo[d][1,2,3]triazol-5-yl)-2-methylpropanoic acid, Trifluoroacetic acid salt] | 1 to 10 nM
5 | CCn1nnc2c(F)c([C@H](c3ccc(C)c(CN4Cc5ccccc5OC(C)(C)C4)c3)[C@@H](C)C(=O)O)ccc21 [Example 193, (2R,3S)-3-(3-((2,2-Dimethyl-2,3-dihydro-benzo[f][1,4]oxazepin-4(5H)-yl)methyl)-4-methylphenyl)-3-(1-ethyl-4-fluoro-1H-benzo[d][1,2,3]triazol-5-yl)-2-methylpropanoic acid, Sodium salt] | 1 to 10 nM
6 | CC[C@@H]1CN(Cc2cc(C(CC(=O)O)c3ccc4c(nnn4C)c3C)ccc2C)Cc2ncccc2O1 (stereo partly drawn) [Example 79, 3-(1,4-Dimethyl-1H-benzo[d][1,2,3]triazol-5-yl)-3-(3-(((R)-2-ethyl-2,3-dihydropyrido[2,3-f][1,4]oxazepin-4(5H)-yl)methyl)-4-methylphenyl)propanoic acid] | 1000 to 10000 nM
7 | Cc1ccc([C@H](CC(=O)O)c2ccc3c(nnn3C)c2C)cc1CN1Cc2ccccc2OC(C)(C)C1 [Example 109, (S)-3-(1,4-dimethyl-1H-benzo[d][1,2,3]triazol-5-yl)-3-(3-((2,2-dimethyl-2,3-dihydrobenzo[f][1,4]oxazepin-4(5H)-yl)methyl)-4-methylphenyl)propanoic Acid, Formic Acid Salt] | 100 to 1000 nM
8 | Cc1ccc(C(CC(=O)O)c2ccc3c(nnn3C)c2C)cc1CN1CCOc2ccc(C#N)cc2C1 (centres unmarked) [Example 14, Ammonium 3-(3-((7-cyano-2,3-dihydrobenzo[f][1,4]oxazepin-4(5H)-yl)methyl)-4-methylphenyl)-3-(1,4-dimethyl-1H-benzo[d][1,2,3]triazol-5-yl)propanoate] | 1000 to 10000 nM
9 | CC[C@@H]1CN(Cc2cc(C(CCc3cn(CC)nn3)C(C)(C)C(=O)O)ccc2C)Cc2ccncc2O1 (stereo partly drawn) [Example 220, 5-(1-Ethyl-1H-1,2,3-triazol-4-yl)-3-(3-(((R)-2-ethyl-2,3-dihydropyrido[4,3-f][1,4]oxazepin-4(5H)-yl)methyl)-4-methylphenyl)-2,2-dimethylpentanoic Acid, 3.2 Trifluoroacetic Acid Salt] | 10 to 100 nM
10 | CCC1CN(Cc2cc([C@@H](c3ccc4c(nnn4C)c3C)C(C)C(=O)O)ccc2C)Cc2ccccc2O1 (stereo partly drawn) [Example 100, (3S)-3-(1,4-dimethyl-1H-benzo[d][1,2,3]triazol-5-yl)-3-(3-((2-ethyl-2,3-dihydrobenzo[f][1,4]oxazepin-4(5H)-yl)methyl)-4-methylphenyl)-2-methylpropanoic Acid] | 10 to 100 nM
11 | CC[C@@H]1CN(Cc2cc([C@H](c3ccc4c(nnn4CC)c3C)C(C)(C)C(=O)O)ccc2C)Cc2cnccc2O1 [Example 189, (R)-3-(3-(((R)-2-ethyl-2,3-dihydropyrido[3,4-f][1,4]oxazepin-4(5H)-yl)methyl)-4-methylphenyl)-3-(1-ethyl-4-methyl-1H-benzo[d][1,2,3]triazol-5-yl)-2,2-dimethylpropanoic Acid] | 1 to 10 nM
12 | CCn1nnc2c(Cl)c([C@@H](CC(=O)O)c3ccc(C)c(CN4Cc5ccccc5OC(C)(C)C4)c3)ccc21 [Example 54, (S)-3-(4-Chloro-1-ethyl-1H-benzo[d][1,2,3]triazol-5-yl)-3-(3-((2,2-dimethyl-2,3-dihydrobenzo[f][1,4]oxazepin-4(5H)-yl)methyl)-4-methylphenyl)propanoic acid, hydrochloride] | 10 to 100 nM
13 | Cc1ccc(C(CC(=O)O)c2ccc3c(nnn3C)c2C)cc1CN1CCCC(S(=O)(=O)C2CCCCC2)C1 (centres unmarked) [compound 186, 3-(3-((3-(Cyclohexylsulfonyl)piperidin-1-yl)methyl)-4-methylphenyl)-3-(1,4-dimethyl-1H-benzo[d][1,2,3]triazol-5-yl)propanoic acid] | 100 to 1000 nM
14 | CC[C@@H]1CN(Cc2cc(C(CC(=O)O)c3ccc4c(nnn4C)c3C)ccc2C)Cc2cccc(C)c2O1 (stereo partly drawn) [Example 76, Ammonium 3-(1,4-Dimethyl-1H-benzo[d][1,2,3]triazol-5-yl)-3-(3-(((R)-2-ethyl-9-methyl-2,3-dihydrobenzo[f][1,4]oxazepin-4(5H)-yl)methyl)-4-methylphenyl)propanate] | 100 to 1000 nM
15 | Cc1ccc([C@@H](c2ccc3c(nnn3C)c2C)C(C)(C)C(=O)O)cc1CN1Cc2ncccc2OC(C)(C)C1 [Example 30, formic acid salt] | 1 to 10 nM
16 | CCn1nnc2c(F)c([C@@H](CC(=O)O)c3ccc(C)c(CN4Cc5ccccc5OC(C)(C)C4)c3)ccc21 [Example 64, (S)-3-(3-((2,2-Dimethyl-2,3-dihydrobenzo[f][1,4]oxazepin-4(5H)-yl)methyl)-4-methylphenyl)-3-(1-ethyl-4-fluoro-1H-benzo[d][1,2,3]triazol-5-yl)propanoic Acid] | 10 to 100 nM
17 | Cc1ccc2c(c1)CN(Cc1cc([C@@H](CC(=O)O)c3ccc4c(nnn4C)c3C)ccc1C)CC(C)(C)O2 [Example 175, (R)-3-(1,4-Dimethyl-1H-benzo[d][1,2,3]triazol-5-yl)-3-(4-methyl-3-((2,2,7-trimethyl-2,3-dihydrobenzo[f][1,4]oxazepin-4(5H)-yl)methyl)phenyl)propanoic Acid] | 10 to 100 nM
18 | CCC1CN(Cc2cc(C(CC(=O)O)c3ccc4c(nnn4C)c3C)ccc2C)Cc2ccc(Br)cc2O1 (centres unmarked) [Example 82, 3-(3-((8-Bromo-2-ethyl-2,3-dihydrobenzo[f][1,4]oxazepin-4(5H)-yl)methyl)-4-methylphenyl)-3-(1,4-dimethyl-1H-benzo[d]-[1,2,3]triazol-5-yl)propanoic acid] | 10 to 100 nM
19 | Cc1ncc(C(c2ccc3c(nnn3C)c2C)C(C)(C)C(=O)O)cc1Cn1ccnc1CC1CCCCCC1 (centres unmarked) [Example 214, 3-(5-((2-(Cycloheptylmethyl)-1H-imidazol-1-yl)methyl)-6-methylpyridin-3-yl)-3-(1,4-dimethyl-1H-benzo[d][1,2,3]triazol-5-yl)-2,2-dimethylpropanoic Acid, Trifluoroacetic Acid Salt] | 100 to 1000 nM
20 | Cc1ccc(C(CC(=O)O)c2ccc3c(nnn3C)c2C)cc1Cn1ccnc1CN1CCCCC1 (centres unmarked) [Example 154, 3-(1,4-dimethyl-1H-benzo[d][1,2,3]triazol-5-yl)-3-(4-methyl-3-((2-(piperidin-1-ylmethyl)-1H-imidazol-1-yl)methyl)phenyl)propanoic Acid, Trifluoroacetic Acid Salt] | 100 to 1000 nM
21 | CC[C@@H]1CN(Cc2cc([C@H](CC(=O)O)c3ccc4c(nnn4C)c3C)ccc2Cl)Cc2ncccc2O1 [Example 263, (S)-3-(4-chloro-3-(((R)-2-ethyl-2,3-dihydropyrido[2,3-f][1,4]oxazepin-4(5H)-yl)methyl)phenyl)-3-(1,4-dimethyl-1H-benzo[d][1,2,3]triazol-5-yl)propanoic acid] | 10 to 100 nM
22 | Cc1ccc(C(c2ccc3c(nnn3C)c2C)C(C)(C)C(=O)O)cc1Cn1ccnc1CC1CCCCCC1 (centres unmarked) [Example 131, 3-(3-((2-(Cycloheptylmethyl)-1H-imidazol-1-yl)methyl)-4-methylphenyl)-3-(1,4-dimethyl-1H-benzo[d][1,2,3]triazol-5-yl)-2,2-dimethylpropanoic acid] | 100 to 1000 nM
23 | CC[C@@H]1CN(Cc2cc(C(CC(=O)O)c3ccc4c(nnn4C)c3C)ccc2C)Cc2ccc(C)cc2O1 (stereo partly drawn) [Example 85, Ammoniumn 3-(1,4-Dimethyl-1H-benzo[d][1,2,3]triazol-5-yl)-3-(3-(((R)-2-ethyl-8-methyl-2,3-dihydrobenzo[f][1,4]oxazepin-4(5H)-yl)methyl)-4-methyphenyl)propanoate] | 100 to 1000 nM
24 | CCC1CCN(Cc2nccn2Cc2cc(C(CCc3cn(CC)nn3)C(C)C(=O)O)ccc2C)CC1 (single isomer, unassigned; isomer 1) [Example 225, 5-(1-Ethyl-1H-1,2,3-triazol-4-yl)-3-(3-((2-((4-ethylpiperidin-1-yl)methyl)-1H-imidazol-1-yl)methyl)-4-methylphenyl)-2-methylpentanoic Acid, Trifluoroacetic Acid Salt (Compound 9, Isomer 1,Scheme A)] | 10 to 100 nM
25 | CC[C@@H]1CN(Cc2cc([C@@H](c3ccc4c(nnn4CC)c3F)[C@@H](C)C(=O)O)ccc2C)Cc2ncccc2O1 [Example 191, (2R,3S)-3-(3-(((R)-2-Ethyl-2,3-dihydropyrido[2,3-f][1,4]oxazepin-4(5H)-yl)methyl)-4-methylphenyl)-3-(1-ethyl-4-fluoro-1H-benzo[d][1,2,3]triazol-5-yl)-2-methylpropanoic acid] | 1 to 10 nM
26 | CC[C@@H]1CN(Cc2cc(C(CCc3cn(CC)nn3)CC(=O)NS(C)(=O)=O)ccc2C)Cc2cnccc2O1 (stereo partly drawn) [Example 234, 5-(1-Ethyl-1H-1,2,3-triazol-4-yl)-3-(3-(((R)-2-ethyl-2,3-dihydropyrido[3,4-f][1,4]oxazepin-4(5H)-yl)methyl)-4-methylphenyl)-N-(methylsulfonyl)pentanamide] | 1000 to 10000 nM
